The source made the active and inactive calls. The calls are words filed in the database; no cut-off is given here.
How the values were obtained:
[1] = Antiproliferative activity against non-FLT3 expressing human OCI-Ly1 cells assessed as inhibition of cell growth measured after 3 days by celltiter-glo luminescent cell viability assay; type: functional, cell-based; conditions: OCI-Ly1, 72 h
NCI-H441 = assay: Antiproliferative activity against non-FLT3 expressing human NCI-H441 cells assessed as inhibition of cell growth measured after 3 days by celltiter-glo luminescent cell viability assay; type: functional, cell-based; conditions: NCI-H441, 72 h
[2] = Antiproliferative activity against human PBMC cells assessed as inhibition of cell growth measured after 3 days by celltiter-glo luminescent cell viability assay; type: toxicity, cell-based
[3] = target: Mast/stem cell growth factor receptor Kit (Homo sapiens) (UniProt P10721); assay: Inhibition of human c-Kit at 1 uM by Eurofins-DiscoverX assay
Mast/stem cell growth factor receptor Kit (Homo sapiens), sequence (P10721 whole entry): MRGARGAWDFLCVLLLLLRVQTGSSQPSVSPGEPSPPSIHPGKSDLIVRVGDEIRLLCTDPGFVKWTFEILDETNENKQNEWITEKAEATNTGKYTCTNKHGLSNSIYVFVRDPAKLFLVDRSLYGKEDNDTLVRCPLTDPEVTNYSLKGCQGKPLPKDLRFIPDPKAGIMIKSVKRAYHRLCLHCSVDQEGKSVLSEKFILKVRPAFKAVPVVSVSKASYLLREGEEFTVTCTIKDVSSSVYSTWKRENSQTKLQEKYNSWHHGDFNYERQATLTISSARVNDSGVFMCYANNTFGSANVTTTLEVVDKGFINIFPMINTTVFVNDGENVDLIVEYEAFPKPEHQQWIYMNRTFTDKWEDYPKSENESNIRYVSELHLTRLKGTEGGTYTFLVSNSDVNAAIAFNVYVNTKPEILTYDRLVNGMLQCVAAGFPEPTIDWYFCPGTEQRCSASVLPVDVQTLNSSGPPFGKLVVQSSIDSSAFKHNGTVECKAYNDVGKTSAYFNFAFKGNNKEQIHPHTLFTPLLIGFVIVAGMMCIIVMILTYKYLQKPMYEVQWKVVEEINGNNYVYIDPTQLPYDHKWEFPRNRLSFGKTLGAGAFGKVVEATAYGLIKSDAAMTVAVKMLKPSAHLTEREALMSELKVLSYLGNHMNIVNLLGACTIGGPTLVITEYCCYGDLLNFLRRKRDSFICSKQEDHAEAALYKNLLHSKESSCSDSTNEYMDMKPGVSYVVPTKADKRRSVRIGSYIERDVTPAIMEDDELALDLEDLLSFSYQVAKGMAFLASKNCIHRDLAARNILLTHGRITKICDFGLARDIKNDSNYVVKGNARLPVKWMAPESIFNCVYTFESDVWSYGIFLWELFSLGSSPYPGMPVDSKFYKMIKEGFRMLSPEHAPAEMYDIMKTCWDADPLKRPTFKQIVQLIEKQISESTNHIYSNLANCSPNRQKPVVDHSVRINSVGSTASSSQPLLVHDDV

[4] = target: T1, Cyclin-dependent kinase 1/cyclin B1 (Homo sapiens) (UniProt P06493+P14635); assay: Inhibition of human CDK1/CyclinB1 at 1 uM by Eurofins-DiscoverX assay; type: protein-complex assay
T1 sequence (P06493 whole entry, looked up): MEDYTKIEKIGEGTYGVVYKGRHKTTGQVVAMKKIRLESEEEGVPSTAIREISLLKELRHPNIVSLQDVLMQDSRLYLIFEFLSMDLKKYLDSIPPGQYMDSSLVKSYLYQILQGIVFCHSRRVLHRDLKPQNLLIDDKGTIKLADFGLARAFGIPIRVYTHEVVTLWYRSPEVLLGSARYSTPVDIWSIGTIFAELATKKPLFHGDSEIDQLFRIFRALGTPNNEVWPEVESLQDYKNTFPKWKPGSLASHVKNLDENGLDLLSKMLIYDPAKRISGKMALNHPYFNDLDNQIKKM
T1 sequence (P14635 whole entry, looked up): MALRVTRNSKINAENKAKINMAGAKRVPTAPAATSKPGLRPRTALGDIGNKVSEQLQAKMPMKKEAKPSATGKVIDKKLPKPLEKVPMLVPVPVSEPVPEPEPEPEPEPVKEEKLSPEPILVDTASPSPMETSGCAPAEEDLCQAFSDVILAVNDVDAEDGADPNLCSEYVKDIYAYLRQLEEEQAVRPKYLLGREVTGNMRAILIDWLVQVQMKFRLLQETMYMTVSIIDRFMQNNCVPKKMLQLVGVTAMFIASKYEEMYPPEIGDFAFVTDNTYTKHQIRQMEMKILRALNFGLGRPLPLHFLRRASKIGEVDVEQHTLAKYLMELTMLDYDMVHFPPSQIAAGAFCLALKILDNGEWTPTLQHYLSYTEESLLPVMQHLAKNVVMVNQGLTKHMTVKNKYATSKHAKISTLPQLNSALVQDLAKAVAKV

[5] = target: T1, Cyclin-dependent kinase 1/cyclin B1 (Homo sapiens); assay: Inhibition of human CDK1/CyclinB1 assessed as remaining activity at 1 uM by Eurofins-DiscoverX assay relative to control; type: protein-complex assay
[6] = target: CDK4/Cyclin D3 (Homo sapiens) (UniProt P11802+P30281); assay: Inhibition of human CDK4/cyclinD3 assessed as remaining activity at 1 uM by Eurofins-DiscoverX assay relative to control; type: protein-complex assay
[7] = target: Vascular endothelial growth factor receptor 1 (Homo sapiens, UniProt P17948); assay: Inhibition of FLT1 (unknown origin) using Fluorescein-Poly GT as substrate preincubated for 10 mins followed by substrate addition and measured after 30 mins in presence of ATP by mobility shift assay
Vascular endothelial growth factor receptor 1, sequence (P17948 whole entry): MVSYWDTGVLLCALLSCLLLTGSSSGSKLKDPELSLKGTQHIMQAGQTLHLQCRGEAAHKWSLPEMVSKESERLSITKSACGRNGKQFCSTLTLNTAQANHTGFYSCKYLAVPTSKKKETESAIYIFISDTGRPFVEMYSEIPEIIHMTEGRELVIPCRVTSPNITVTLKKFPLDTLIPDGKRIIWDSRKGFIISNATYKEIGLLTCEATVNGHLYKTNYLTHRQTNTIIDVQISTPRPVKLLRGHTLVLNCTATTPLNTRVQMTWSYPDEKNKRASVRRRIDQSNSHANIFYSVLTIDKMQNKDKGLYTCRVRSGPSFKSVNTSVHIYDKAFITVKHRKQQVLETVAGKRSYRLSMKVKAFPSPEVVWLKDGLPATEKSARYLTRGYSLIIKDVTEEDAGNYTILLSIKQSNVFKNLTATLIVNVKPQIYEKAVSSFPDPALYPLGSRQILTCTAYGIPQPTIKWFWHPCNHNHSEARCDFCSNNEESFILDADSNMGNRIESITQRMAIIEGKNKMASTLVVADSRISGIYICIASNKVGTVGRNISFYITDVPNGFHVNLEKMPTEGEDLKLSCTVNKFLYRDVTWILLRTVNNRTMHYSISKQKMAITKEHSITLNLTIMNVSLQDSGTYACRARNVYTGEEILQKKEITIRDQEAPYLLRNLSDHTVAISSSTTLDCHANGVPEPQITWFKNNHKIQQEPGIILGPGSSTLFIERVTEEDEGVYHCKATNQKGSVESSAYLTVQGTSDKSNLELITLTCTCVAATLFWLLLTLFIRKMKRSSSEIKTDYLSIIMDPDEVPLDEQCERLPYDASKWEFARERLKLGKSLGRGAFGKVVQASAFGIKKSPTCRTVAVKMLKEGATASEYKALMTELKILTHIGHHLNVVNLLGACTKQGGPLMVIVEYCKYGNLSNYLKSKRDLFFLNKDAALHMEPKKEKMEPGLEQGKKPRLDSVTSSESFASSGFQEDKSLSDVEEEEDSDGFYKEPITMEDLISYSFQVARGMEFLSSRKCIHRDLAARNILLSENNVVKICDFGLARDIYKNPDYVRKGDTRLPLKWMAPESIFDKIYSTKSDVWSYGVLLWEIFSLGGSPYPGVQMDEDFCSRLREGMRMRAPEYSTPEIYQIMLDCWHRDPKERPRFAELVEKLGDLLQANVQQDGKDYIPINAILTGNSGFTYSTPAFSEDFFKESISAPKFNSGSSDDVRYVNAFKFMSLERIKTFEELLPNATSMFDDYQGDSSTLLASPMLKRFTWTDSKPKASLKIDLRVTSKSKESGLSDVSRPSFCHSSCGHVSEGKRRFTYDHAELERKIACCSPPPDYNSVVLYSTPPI

[8] = target: Vascular endothelial growth factor receptor 3 (Homo sapiens, UniProt P35916); assay: Inhibition of FLT4 (unknown origin) using Fluorescein-Poly GT as substrate preincubated for 10 mins followed by substrate addition and measured after 30 mins in presence of ATP by mobility shift assay
Vascular endothelial growth factor receptor 3, sequence (P35916 whole entry): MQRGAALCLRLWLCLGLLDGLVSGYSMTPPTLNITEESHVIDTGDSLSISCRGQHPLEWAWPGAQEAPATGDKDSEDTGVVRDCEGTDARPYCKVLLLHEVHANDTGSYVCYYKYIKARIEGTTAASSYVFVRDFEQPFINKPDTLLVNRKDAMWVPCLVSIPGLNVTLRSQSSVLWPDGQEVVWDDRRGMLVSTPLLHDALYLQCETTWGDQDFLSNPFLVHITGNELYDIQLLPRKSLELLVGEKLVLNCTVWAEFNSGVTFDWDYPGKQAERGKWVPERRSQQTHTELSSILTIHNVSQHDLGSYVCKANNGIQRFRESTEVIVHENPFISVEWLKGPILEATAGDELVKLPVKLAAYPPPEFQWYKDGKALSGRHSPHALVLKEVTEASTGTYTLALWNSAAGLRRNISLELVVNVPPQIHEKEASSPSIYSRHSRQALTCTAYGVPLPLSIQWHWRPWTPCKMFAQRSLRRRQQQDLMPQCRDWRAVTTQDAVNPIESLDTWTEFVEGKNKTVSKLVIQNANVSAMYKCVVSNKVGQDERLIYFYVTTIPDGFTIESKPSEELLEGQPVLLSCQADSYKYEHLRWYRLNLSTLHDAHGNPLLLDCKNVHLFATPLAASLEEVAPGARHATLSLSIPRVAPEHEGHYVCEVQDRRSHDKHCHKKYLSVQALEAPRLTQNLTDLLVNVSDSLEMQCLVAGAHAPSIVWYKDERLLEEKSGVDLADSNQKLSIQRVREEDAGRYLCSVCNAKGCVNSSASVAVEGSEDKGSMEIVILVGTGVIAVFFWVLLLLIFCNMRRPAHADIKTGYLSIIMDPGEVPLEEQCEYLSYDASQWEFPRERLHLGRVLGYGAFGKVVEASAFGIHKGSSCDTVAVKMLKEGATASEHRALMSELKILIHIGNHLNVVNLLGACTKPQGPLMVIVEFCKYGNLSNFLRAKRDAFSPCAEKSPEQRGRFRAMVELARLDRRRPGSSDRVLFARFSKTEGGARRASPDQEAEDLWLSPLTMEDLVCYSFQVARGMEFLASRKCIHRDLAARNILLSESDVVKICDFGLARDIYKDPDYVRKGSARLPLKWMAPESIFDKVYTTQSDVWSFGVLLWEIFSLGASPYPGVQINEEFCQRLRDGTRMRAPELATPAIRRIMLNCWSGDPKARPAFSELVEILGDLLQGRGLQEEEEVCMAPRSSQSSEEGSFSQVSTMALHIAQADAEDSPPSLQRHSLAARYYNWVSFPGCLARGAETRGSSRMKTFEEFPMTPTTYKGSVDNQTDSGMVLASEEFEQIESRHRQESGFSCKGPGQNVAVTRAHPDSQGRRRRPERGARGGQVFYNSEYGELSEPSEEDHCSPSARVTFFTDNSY

MOLM-13 [9] = assay: Inhibition of STAT5 phosphorylation in human MOLM-13 cells measured after 2 hrs by Western blot analysis; type: cell-based; conditions: dose 0.01-1 µM
[10] = target: Receptor-type tyrosine-protein kinase FLT3 (Homo sapiens) (UniProt P36888); assay: Inhibition of FLT3 phosphorylation in human MOLM-13 cells at 0.2 uM measured after 2 hrs by Western blot analysis relative to control; type: cell-based
MOLM-13 [11] = assay: Induction of apoptosis in human MOLM-13 cells assessed as early apoptotic cells at 1 uM incubated for 48 hrs by Annexin V-FITC/PI staining based flow cytometry analysis (reference value: 4.93%); type: functional
MOLM-13 [12] = assay: Induction of apoptosis in human MOLM-13 cells assessed as late apoptotic cells at 1 uM incubated for 48 hrs by Annexin V-FITC/PI staining based flow cytometry analysis (reference value: 3.10%); type: functional
MOLM-13 [13] = assay: Induction of apoptosis in human MOLM-13 cells assessed as necrotic cells at 0.1 uM incubated for 48 hrs by Annexin V-FITC/PI staining based flow cytometry analysis (reference value: 0.077%); type: functional
MOLM-13 [14] = assay: Induction of cell cycle arrest in human MOLM-13 cells assessed as accumulation of cells at G1 phase at 0.3 uM incubated for 48 hrs (reference value: 40.3%); type: functional
MOLM-13 [15] = assay: Induction of cell cycle arrest in human MOLM-13 cells assessed as accumulation of cells at S phase at 0.1 uM incubated for 48 hrs (reference value: 41.6%); type: functional
MOLM-13 [16] = assay: Induction of cell cycle arrest in human MOLM-13 cells assessed as accumulation of cells at S phase at 0.3 uM incubated for 48 hrs (reference value: 41.6%); type: functional
MOLM-13 [17] = assay: Induction of cell cycle arrest in human MOLM-13 cells assessed as accumulation of cells at S phase at 1 uM incubated for 48 hrs (reference value: 41.6%); type: functional
MOLM-13 [18] = assay: Induction of cell cycle arrest in human MOLM-13 cells assessed as accumulation of cells at G2 phase at 0.1 uM incubated for 48 hrs (reference value: […]); type: functional
MOLM-13 [19] = assay: Induction of cell cycle arrest in human MOLM-13 cells assessed as accumulation of cells at G2 phase at 0.3 uM incubated for 48 hrs (reference value: […]); type: functional
MOLM-13 [20] = assay: Induction of cell cycle arrest in human MOLM-13 cells assessed as accumulation of cells at G2 phase at 1 uM incubated for 48 hrs (reference value: […]); type: functional
MOLM-13 [21] = assay: Induction of apoptosis in human MOLM-13 cells incubated for 48 hrs by Annexin V-FITC/PI staining based flow cytometry analysis; type: functional, cell-based; conditions: dose 0.1-1 µM
MOLM-13 [22] = assay: Induction of cell cycle arrest in human MOLM-13 cells incubated for 48 hrs; type: functional, cell-based; conditions: dose 0.1-1 µM
[23] = Metabolic stability in Sprague-Dawley rat liver microsomes assessed as parent compound remaining at 1 uM measured after 60 mins in presence of NADPH regenerating system by LC-MS/MS analysis; type: ADME, Microsome; conditions: read-out: Stability
[24] = Metabolic stability in Sprague-Dawley rat liver microsomes assessed as parent compound remaining at 1 uM measured after 60 mins by LC-MS/MS analysis; type: ADME, Microsome; conditions: read-out: Stability
[25] = Metabolic stability in human liver microsomes assessed as half life at 1 uM measured up to 60 mins in presence of NADPH regenerating system by LC-MS/MS analysis; type: ADME, Microsome
[26] = Metabolic stability in Beagle dog liver microsomes assessed as intrinsic clearance at 1 uM measured up to 60 mins in presence of NADPH regenerating system by LC-MS/MS analysis; type: ADME, Canis lupus familiaris, Microsome; conditions: read-out: CLH
[27] = Metabolic stability in Beagle dog liver microsomes assessed as parent compound remaining at 1 uM measured after 60 mins in presence of NADPH regenerating system by LC-MS/MS analysis; type: ADME, Canis lupus familiaris, Microsome; conditions: read-out: Stability
[28] = Metabolic stability in Beagle dog liver microsomes assessed as parent compound remaining at 1 uM measured after 60 mins by LC-MS/MS analysis; type: ADME, Canis lupus familiaris, Microsome; conditions: read-out: Stability
[29] = Permeability of the compound incubated for 4 hrs by PAMPA method; type: ADME; conditions: read-out: permeability
CYP1A2 = CYP1A2 (Homo sapiens, UniProt P05177); assay: Inhibition of CYP1A2 in human liver microsomes using phenacetin as substrate at 10 uM incubated for 10 mins in presence of NADPH by LC-MS/MS analysis relative to control; type: ADME, Microsome; conditions: probe phenacetin
CYP2C9 = CYP2C9 (Homo sapiens, UniProt P11712); assay: Inhibition of CYP2C9 in human liver microsomes using diclofenac as substrate at 10 uM incubated for 10 mins in presence of NADPH by LC-MS/MS analysis relative to control; type: ADME, Microsome; conditions: probe diclofenac
CYP2C9, sequence (P11712 whole entry): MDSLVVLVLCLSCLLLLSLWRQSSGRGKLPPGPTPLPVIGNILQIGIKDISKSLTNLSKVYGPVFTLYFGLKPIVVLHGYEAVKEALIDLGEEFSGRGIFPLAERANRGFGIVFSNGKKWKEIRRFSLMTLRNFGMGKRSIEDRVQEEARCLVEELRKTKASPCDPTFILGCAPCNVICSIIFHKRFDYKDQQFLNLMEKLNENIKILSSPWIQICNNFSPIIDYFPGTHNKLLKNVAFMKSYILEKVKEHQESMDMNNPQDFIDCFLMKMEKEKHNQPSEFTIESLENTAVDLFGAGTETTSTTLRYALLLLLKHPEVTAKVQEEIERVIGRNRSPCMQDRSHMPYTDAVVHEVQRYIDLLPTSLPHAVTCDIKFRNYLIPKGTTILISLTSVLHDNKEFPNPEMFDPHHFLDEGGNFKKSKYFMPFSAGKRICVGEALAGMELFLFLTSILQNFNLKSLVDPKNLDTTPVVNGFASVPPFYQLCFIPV

[30] = Tmax in mouse at 5 mg/kg, iv; type: ADME, organism-based; conditions: in vivo
[31] = Clearance in mouse at 5 mg/kg, iv; type: ADME, organism-based; conditions: in vivo
[32] = Cmax in mouse at 10 mg/kg, po; type: ADME, organism-based; conditions: in vivo
[33] = AUC (0 to t) in mouse at 10 mg/kg, po; type: ADME, organism-based; conditions: in vivo
MOLM-13 [34] = assay: Antitumor activity against human MOLM-13 xenografted in male nude mouse assessed as tumor growth inhibition at 30 mg/kg, po administered once daily for 14 days by vernier caliper method relative to control; type: functional; conditions: MOLM-13, 336 h, time 14 day, read-out: TGI

## Cc1cc(=O)n(-c2cc(Cl)ccc2F)nc1C(=O)Nc1ccc(Oc2ccnc(NC(=O)N3CC(O)C3)c2)c(F)c1
[1]
  IC50: 12.3 µM
NCI-H441
  IC50: > 30 µM
[2]
  IC50 at 3 days: > 30 µM
[3]
  inhibition: inactive
[4]
  inhibition: inactive
[5]
  Activity: 88%
[6]
  Activity: 88%
[7]
  IC50: 0.348 µM
[8]
  IC50: 0.166 µM
MOLM-13 [9]
  inhibition: Dose-dependent-effect
[10]
  inhibition: 100%
MOLM-13 [11]
  Activity: 29.6%
MOLM-13 [12]
  Activity: 36.2%
MOLM-13 [13]
  Activity: 0.062%
MOLM-13 [14]
  Activity: 75.8%
MOLM-13 [15]
  Activity: 40.5%
MOLM-13 [16]
  Activity: 17.1%
MOLM-13 [17]
  Activity: 21.2%
MOLM-13 [18]
  Activity: 9.39%
MOLM-13 [19]
  Activity: 8.51%
MOLM-13 [20]
  Activity: 0%
MOLM-13 [21]
  Activity: Dose-dependent-effect
MOLM-13 [22]
  Activity: Dose-dependent-effect
[23]
  remaining at 1 h, 1 µM: 69.2%
[24]
  remaining at 1 h, 1 µM: 108%
[25]
  half-life at 1 µM: 1.82 h
[26]
  microsomal CLint at 1 µM: 11.1 µL/min/mg
[27]
  remaining at 1 h, 1 µM: 72.7%
[28]
  remaining at 1 h, 1 µM: 103%
[29]
  Papp at 4 h: 0.86 ×10⁻⁶ cm/s
CYP1A2
  inhibition at 10 min, 10 µM: 9.5%
CYP2C9
  inhibition at 10 min, 10 µM: 25.6%
[30]
  Tmax: 0.25 h
[31]
  clearance: 38.8 mL/min/kg
[32]
  Cmax: 306 ng/mL
[33]
  AUC(0-t): 1400 ng·h/mL
MOLM-13 [34]
  inhibition in vivo at 30 mg/kg: 77.1%

Reference: ChEMBL document CHEMBL6109114, “Design, synthesis, and biological evaluation of 4-(2-fluorophenoxy)pyridine derivatives as novel FLT3-ITD inhibitors” (Eur J Med Chem, 2025)
